Data set [1] deals with DRG explants in dual hydrogel constructs. Format: cell-based, rat. The conditions noted are these: for response duration before (t1-t5) vs after (t16-t20) drug wash-in / response amplitude before (t1-t5) vs after (t16-t20) drug wash-in: 20 μM DNQX and 50 μM APV applied together; for response duration before (t1-t5) vs after (t16-t20) drug wash-in: n=4, at half-peak; for response amplitude before (t1-t5) vs after (t16-t20) drug wash-in: n=4, peak-to-peak.

The test system of a further data set is DRG neurites. The data set can be described thus: DRG neurite growth toward a factor diffusing from a reservoir in the hydrogel construct. The conditions noted are these: NGF vs BSA diffusing from a reservoir, FIG. 28. Format: cell-based.
Data set [2] relates to neuronal cell death in vitro. The settings on record: cited from earlier work.
Data set [3] deals with DRG/Schwann cell co-culture. The data set can be described thus: DRG/SC three-dimensional co-culture: neurite growth and myelin formation (immunohistochemistry, confocal). Format: cell-based, rat. An excerpt: The dual hydrogel culture system was fabricated using a digital projection photolithography, as described above. A schematic of the process is seen in FIG. 13. In brief, a photolithography apparatus comprised of a collimated UV light source (OmniCure 1000 with 320-500 nm filter, EXFO, Quebec, Canada) and a visible light source (SOLA light engine with […] filter, Lumencor, Oreg., USA), a digital micromirror device (DMD) (Discovery™ 3000, Texas Instruments, Dallas, Tex.) as a dynamic photomask and a 2× Plan Fluor objective lens (Nikon Instruments, Tokyo, Japan) were utilized to irradiate the photocurable hydrogel solution that was contained in a permeable cell culture insert with 0.4 μm pore size. The inserts were either collagen-coated PTFE Transwell® Permeable Support or Transwell™ Clear Polyester Membrane Inserts (Corning Inc., Corning, N.Y., USA) to investigate the influence of collagenated substrates on SC/neuron incorporation. The dual hydrogel system consists of two compartments: a cell permissive section that contains neurons and a cell restrictive section that acts as a hydrogel mold. In order to make the cell restrictive section, a solution of 10% (w/v) PEG-diacrylate (Mn 1000; Polysciences Inc., Warrington, Pa.) and 0.5% (w/v) Irgacure 2959 in PBS was irradiated with 85 mW/cm2 UV light as measured by a radiometer (306 UV Powermeter, Optical Associates, San Jose, Calif.), for 38 seconds to make a PEG micromold, shown in FIG. 13. The cell culture insert was treated with filtered Rain-X® Original Glass Treatment (RainX, Houston, Tex.) prior to addition of the gel solution in order to avoid meniscus behavior. 0.5 ml of solution was added to each 6-well plate insert. Addition of 0.5 ml solution results in a gel thickness of 480 μm. Hydrogel constructs were washed in DPBS with 1% antibiotic-antimycotic additive to inhibit contamination.
As the first step of the co-culture, the primary tissue culture was performed. The PEG constructs were prepared and immersed in the adhesion media and incubated (37° C., 5% C02) overnight prior to the tissue culture. The adhesion media was comprised of Neurobasal medium supplemented with B27 (2% v/v), L-glutamine (0.25% v/v), nerve growth factor (NGF) (0.02 μg/ml), fetal bovine serum (FBS) (10% v/v/) and penicillin/streptomycin (1% v/v) (all from Life Technologies, CA). The constructs were then cultured with Long Evans rat embryo dorsal root ganglion (DRG) tissue, in keeping with the guidelines of the Institutional Animal Care and Use Committee. The DRGs were isolated from embryonic day 15 rat embryos and trimmed prior to the culture. A single DRG explant was placed in each construct. The DRGs were then incubated in fresh adhesion media overnight to allow the tissue to adhere to the insert
The SCs were dispersed in 50% MeDex solution in SC medium as described above to reach a cell count of 20×10^6 cell/mL. In order to achieve an evenly distributed single cell solution, the gel mixture was pipetted up and down vigorously. The adhesion medium was aspirated from the channels gently to avoid disturbing the adhered DRGs and 2 μL of the MeDex single cell solution was added to each PEG micromold. A negative photomask was loaded on the DMD and the gel solution in the channel was crosslinked with 85 mW/cm^2 visible light as measured by a radiometer (306 UV Powermeter, Optical Associates, San Jose, Calif.) after 30 seconds of irradiation using a visible light source (SOLA light engine with 375-650 nm filter, Lumencor, Oreg., USA). The constructs were gently washed using the wash buffer described above three times.
In order to understand the influence of various media regimens on the behavior of DRGs and SCs in a three-dimensional co-culture, two different culture systems were applied. The culture systems are described in Table 2. Culture System 1 has two phases where Media 1 (10 days) and 2 (15 days) are applied in that order. […]

The test system of a further data set is Retinal explants. The data set can be described thus: Retinal explant culture in 3D micropatterned hydrogels. Format: cell-based, rat. The conditions noted are these: neurobasal Sato medium supplemented with the factor, one week, β-III tubulin. Here is the method: Work and experimental data for the dorsal root ganglia model is presented in the present disclosure. For a central nervous system model, the growth of retinal explants has also been explored. FIGS. 27A-27B depict a culture of retinal (CNS) tissue. Retinal explants from embryonic rats were cultured within 3D micropatterned hydrogels in “neurobasal Sato” medium supplemented with either ciliary neurotrophic factor CNTF ([…]) or brain-derived neurotrophic factor BDNF ([…]).

Entries after “also recorded” stand apart in the source; their conditions may differ.

With `O=C1N=c2cc([N+](=O)[O-])c([N+](=O)[O-])cc2=NC1=O` [DNQX, 6,7-dinitroquinoxaline-2,3Dione], in data set [1], the “response duration before (t1-t5) vs after (t16-t20) drug wash-in” value is “no statistically significant difference; also recorded: no marked change” and the “response amplitude before (t1-t5) vs after (t16-t20) drug wash-in” value is reported as “no statistically significant difference; also recorded: no marked change”.

For the molecule NGF: nerve growth factor, the “direction of DRG neurite growth” value in the data set with DRG neurites is on record as “grow preferentially toward NGF”.

With `CC[C@]1(O)C[C@H]2CN(CCc3c([nH]c4ccccc34)[C@@](C(=O)OC)(c3cc4c(cc3OC)N(C=O)[C@H]3[C@@](O)(C(=O)OC)[C@H](OC(C)=O)[C@]5(CC)C=CCN6CC[C@]43[C@@H]65)C2)C1` [Vincristine], the Neurotoxic dose in data set [2] is 0.1 µM.

In the case of `CC(C)C[C@H](NC(=O)[C@H](Cc1ccccc1)NC(=O)c1cnccn1)B(O)O` [Bortezomib], in data set [2], the Neurotoxic dose is 0.02 µM.

For `O=C1O[C@H]([C@@H](O)CO)C(O)=C1O` [AA, L-ascorbic acid], the amount of myelin entry in data set [3] (25 days of media containing AA (NCol-25, Col-25)) is “considerable increase”. Besides, the “ratio of myelin to neuronal growth (percentage of myelin)” value in data set [3] (longer exposures to AA, MBP, MAG, PO stains) is “increases”.

For `NC1=N[C@H](O)[C@H]2[C@H]3O[C@]4(O)O[C@@H]([C@@H](O)[C@@]2(N1)[C@@H]4O)[C@]3(O)CO` [TTX, tetrodotoxin], in data set [1], the “average response amplitude (peak-to-peak) after wash-in” value stood at 0.04 μV, the “effect on CAP / population response” value is given as “reversibly abolished; also recorded: completely abolished; also recorded: abolishment of population response” and the “time to complete abolishment of responses” value is no more than 2 min.

Turning to collagen, the “amount of myelin formation” value in data set [3] (25 days, addition of collagen I and III) is reported as “increased”. Also, the “volume of neuronal outgrowth, cultures with vs without collagen” value in data set [3] (25 days, collagen-coated inserts, n=15-18 constructs) was “significantly higher volume; also recorded: significantly more neuronal growth”. Also, the “amount of MBP-positive myelin” value in data set [3] (25 days, presence of collagen, FIG. 17B) is listed as “increased”. Also, the “amount of PO-positive myelin” value in data set [3] (25 days, presence of collagen, FIG. 18B) is reported as “increased”.

For `N[C@H](CCCP(=O)(O)O)C(=O)O` [APV, (2R)-amino-5-phosphonopentanoate], in data set [1], the “response duration before (t1-t5) vs after (t16-t20) drug wash-in” value was “no statistically significant difference; also recorded: no marked change” and the “response amplitude before (t1-t5) vs after (t16-t20) drug wash-in” value is given as “no statistically significant difference; also recorded: no marked change”.

For `CC(=O)O[C@H]1C(=O)[C@@]2(C)[C@H]([C@H](OC(=O)c3ccccc3)[C@]3(O)C[C@H](OC(=O)[C@H](O)[C@@H](NC(=O)c4ccccc4)c4ccccc4)C(C)=C1C3(C)C)[C@]1(OC(C)=O)CO[C@@H]1C[C@@H]2O` [Paclitaxel], the Neurotoxic dose in data set [2] is 0.1 µM.

B1: CNTF: ciliary neurotrophic factor (protein, UniProt P26441 1-200, looked up)
Ciliary neurotrophic factor: MAFTEHSPLTPHRRDLCSRSIWLARKIRSDLTALTESYVKHQGLNKNINLDSADGMPVASTDQWSELTEAERLQENLQAYRTFHVLLARLLEDQQVHFTPTEGDFHQAIHTLLLQVAAFAYQIEELMILLEYKIPRNEADGMPINVGDGGLFEKKLWGLKVLQELSQWTVRSIHDLRFISSHQTGIPARGSHYIANNKKM
As for B1, the “retinal ganglion cell axon extension” value in the data set with Retinal explants was “Observable retinal ganglion cell axon extension”.

B2: BDNF: brain-derived neurotrophic factor (protein, UniProt P23560 19-247, looked up)
Neurotrophic factor BDNF …: APMKEANIRGQGGLAYPGVRTHGTLESVNGPKAGSRGLTSLADTFEHVIEELLDEDQKVRPNEENNKDADLYTSRVMLSSQVPLEPPLLFLLEEYKNYLDAANMSMRVRRHSDPARRGELSVCDSISEWVTAADKKTAVDMSGGTVTVLEKVPVSKGQLKQYFYETKCNPMGYTKEGCRGIDKRHWNSQCRTTQSYVRALTMDSKKRIGWRFIRIDTSCVCTLTIKRGR
Take B2: the “retinal ganglion cell axon extension” value with Retinal explants is listed as “Observable retinal ganglion cell axon extension”.

The values above are taken from US20170276668A1, “NEURAL MICROPHYSIOLOGICAL SYSTEMS AND METHODS OF USING THE SAME” (The Administrators of the Tulane Educational Fund, priority 2014, published 2017).
